# Experimental data taken from patent publication US11426472B2, “Fibroblast activation protein (FAP) targeted imaging and therapy in fibrosis” (Purdue Research Foundation, priority 2018, dated 2022).
# Columns and labels:
# mouse FAP = target: T1, mouse FAP (Mus musculus, UniProt P97321); assay: Binding of FAPL_FITC to TGFβ-induced NIH-3T3 cells; type: cell-based
# T1 construct: NIH-3T3 cells were induced with TGFβ to express FAP; endogenous in cells; host or cells: NIH-3T3 mouse fibroblasts induced with TGFβ
# T1 sequence (P97321 1-761): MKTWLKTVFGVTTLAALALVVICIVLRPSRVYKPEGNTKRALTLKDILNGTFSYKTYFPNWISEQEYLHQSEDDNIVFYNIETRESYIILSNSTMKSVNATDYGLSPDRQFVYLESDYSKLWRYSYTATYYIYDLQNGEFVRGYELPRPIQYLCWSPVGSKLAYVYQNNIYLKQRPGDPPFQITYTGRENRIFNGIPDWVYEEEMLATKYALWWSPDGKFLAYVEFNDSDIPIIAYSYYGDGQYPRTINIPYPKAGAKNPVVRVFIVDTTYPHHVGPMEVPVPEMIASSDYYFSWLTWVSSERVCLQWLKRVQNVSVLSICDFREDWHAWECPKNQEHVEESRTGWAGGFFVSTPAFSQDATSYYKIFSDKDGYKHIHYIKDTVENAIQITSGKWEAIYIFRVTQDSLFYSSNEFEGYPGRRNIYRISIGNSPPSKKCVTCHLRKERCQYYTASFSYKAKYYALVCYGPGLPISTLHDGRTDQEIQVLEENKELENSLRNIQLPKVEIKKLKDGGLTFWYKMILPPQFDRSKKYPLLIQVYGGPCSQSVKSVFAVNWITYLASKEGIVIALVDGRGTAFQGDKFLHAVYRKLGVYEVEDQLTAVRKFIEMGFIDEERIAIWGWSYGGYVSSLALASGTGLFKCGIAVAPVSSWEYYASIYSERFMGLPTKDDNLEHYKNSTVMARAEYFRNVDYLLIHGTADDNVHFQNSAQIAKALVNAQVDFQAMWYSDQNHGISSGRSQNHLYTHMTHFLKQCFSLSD
# From the text: FAPL-FITC targets mouse FAP in mouse fibroblast cells. Fluorescence binding affinity study of FAPL_FITC in HLF-hFAP cells. (C) Binding of FAPL_FITC to TGFb induced mouse NIH-3T3 cell line.
# In this Example, we have shown that FAPL_FITC can recognize mouse FAP. Briefly, NIH-3T3 cells were induced with TGFβ to express FAP (mimicking the pathogenesis of fibrosis in mice). FAPL_FITC can recognize almost 98% of the cell population that binds to a specific monoclonal antibody against mouse FAP.
# human FAP = target: T2, human FAP (Homo sapiens, UniProt Q12884); assay: Live cell imaging of FAP-FITC binding and internalization in HLF1-hFAP cells; type: cell-based; conditions: 10 nM
# T2 construct: expressed in transfected cells; host or cells: HLF1 human lung fibroblast cell line transfected with FAP (HLF1-hFAP)
# T2 sequence (Q12884 1-760): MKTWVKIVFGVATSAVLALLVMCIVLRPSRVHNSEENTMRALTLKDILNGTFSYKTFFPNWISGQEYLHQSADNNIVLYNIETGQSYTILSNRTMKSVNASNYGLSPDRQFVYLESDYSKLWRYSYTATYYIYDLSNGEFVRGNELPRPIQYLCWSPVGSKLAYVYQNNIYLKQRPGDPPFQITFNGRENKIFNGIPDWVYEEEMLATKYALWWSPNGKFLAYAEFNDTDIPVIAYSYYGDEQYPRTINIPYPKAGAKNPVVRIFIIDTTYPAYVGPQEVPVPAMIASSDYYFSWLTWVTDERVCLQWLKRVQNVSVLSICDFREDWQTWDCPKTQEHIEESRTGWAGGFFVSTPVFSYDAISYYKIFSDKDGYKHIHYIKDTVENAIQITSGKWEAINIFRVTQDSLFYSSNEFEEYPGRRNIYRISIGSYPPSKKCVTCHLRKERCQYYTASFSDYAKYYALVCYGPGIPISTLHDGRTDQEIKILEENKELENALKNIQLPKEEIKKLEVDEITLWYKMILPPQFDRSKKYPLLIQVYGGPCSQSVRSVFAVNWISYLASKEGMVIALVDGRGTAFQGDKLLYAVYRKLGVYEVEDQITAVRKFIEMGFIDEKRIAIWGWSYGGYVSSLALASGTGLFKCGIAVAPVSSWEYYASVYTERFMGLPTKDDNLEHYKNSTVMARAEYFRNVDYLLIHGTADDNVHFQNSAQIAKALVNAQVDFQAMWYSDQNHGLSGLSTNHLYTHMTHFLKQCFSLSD
# Protocol: FAPL-FITC targets human FAP in HLF1 cells. A) Live cell imaging of FAPL-FITC internalization. confocal microscopy images of HLF1-hFAP cells incubated with FAPL-FITC (10 nM), FAP staining is shown in green. Spatial localization of FAPL-FITC in HLF1-hFAP cell line at 0 min (a), and at 30 min (d). Colocalization of FAP and endosomes: HLF1-hFAP cells incubated with FAPL-FITC followed by staining for endosomes (Rab7a-RFP; red) and nucleus (DRAQ5; blue). The merge of the 3 images is shown on the right (c, and f). Yellow indicated colocalization of FAP with endosomal markers.
# HLF1-hFAP cells were seeded in the glass-bottom dish and incubated with adequate amount of endosomes tracker (Rab7a-RFP, ThermoFisher) for overnight. Then cells were incubated with FAP-FITC (10 nM) for 1 hour at 4° C. Followed by staining with […] DRAQ5 nucleus dye (ThermoFisher) and 3 times of PBS washes, spatial localization of FAP-FITC was monitor at given time under ambient temperature by confocal microscope (FV 1000, Olympus). Confocal images were further processed by FV10-ASW, Olympus software.
# IPF fibroblasts = assay: TGFβ-induced Collagen I in IPF patient fibroblasts (molecular crowding assay, high content imaging); type: cell-based, human; conditions: for TGFβ-induced collagen production/secretion: IPF patient fibroblasts, TGFβ 1 ng/mL, 48 h
# Protocol: PI3KI1 and PI3KI1-FAPL suppressed TGFβ-induced collagen production in IPF fibroblasts. (B) Confluent IPF fibroblasts were stimulated for 48 h with TGFβ (1 ng/mL) with increasing concentrations of OMIPALISIB or PI3KI1 or PI3KI1-FAPL and Collagen I expression was assayed by molecular crowding assay with high content image analysis. Data are expressed as relative fluorescent intensity over TGFβ treated IPF fibroblasts (C) and cell counts obtained from DAPI counterstaining (D).
# HLF-1 fibroblasts [1] = assay: Secreted collagen in HLF1 cells (Sirius Red staining); type: cell-based, human
# Protocol: (§1) PI3KI1 inhibits Akt phosphorylation, proliferation, collagen secretion and collagen gel contraction in HLF-1 fibroblasts. (A) PI3KI1 structure. (B) Confluent HLF-1 fibroblasts were stimulated with TGFβ (1 ng/mL) with indicated PI3KI1 or OMIPALISIB and lysates collected for Western blotting. […] Collagen 1 and αSMA expression was suppressed by 100 nM PI3KI1, but pSMAD2 was not affected by PI3K inhibitors. (C) MTT assay and Caspase 3 and 7 activity (Supplementary data) show PI3KI1 inhibited HLF-1 proliferation at >100 nM. (D) HLF-1 fibroblasts were stimulated with TGFβ (1 ng/mL) for 3 days and level of secreted collagen in culture medium was determined by Sirius Red staining. […] Data are analysis by t-test; *p<0.05, **p<0.01.
# Confluent HLF1 cells were seeded in DMEM medium containing 10% FBS and then 0.4% serum starvation overnight before stimulation of collagen secretion. TGFb1 (0.1 ng/ml) were added into cells with or without PI3K inhibitors. At 2 days post co-incubation, culture medium was collected for determination of total secreted collagen level. Total collagen level was determined by Sirius Red Total Collagen Detection Kit (Chondrex, Inc). Basically, concentrated sample incubated with […] of Sirius Red Solution with for 20 minutes at room temperature. […] Add […] of Extraction Buffer to the Sirius Red stained pellet and read the OD at 510-550 nm.
# [2] = system: bleomycin-induced lung fibrosis; assay: Therapy in bleomycin-induced lung fibrosis model (survival, hydroxyproline); type: in vivo, mouse; conditions: for survival: bleomycin-induced mice versus untreated/PBS control; for hydroxyproline/collagen in lung: bleomycin-induced mice, day 21, versus untreated/PBS control
# From the text: Therapy with FAP-a targeted Pi3K inhibitor in bleomycin treated mice. (A) Schematic representation of the experimental protocol for induction, treatment and examination of pulmonary fibrosis in a mouse model. (B) Survival probability of the FAPL_PI3KI1 treated mice over the saline control. (C) Hydroxyproline content (ug/lung) of control (saline), bleomycin treated with and without FAPL_PI3KI1 treatment at day 21. (D) Body weight change
# 8 to 10-week old C57BL/6-NCrl (Strain Code: 027) male mice (Charles River) were anesthetized (mixture of xylazine/ketamine), followed by a single intratracheal injection of freshly prepared 0.75 mg/Kg of bleomycin sulfate (Cayman Chemicals, Cat N13877) in 50 μL of sterile phosphate-buffered saline (PBS). Control mice were injected with 50 μL of sterile PBS. Body weights were monitored throughout the study. To access the FAP expression and fibrosis in the longitudinal study the lungs were harvested at Days 7, 14 and 21 post-bleomycin instillation. For the therapy with FAP-PI3K inhibitor, same procedure was carried out to administer bleomycin and the lungs were harvested at Day 21 to access the therapeutic efficacy (Day 0 was accounted as the day of bleomycin administration).
# Total lung collagen was determined by analysis of hydroxyproline as previously described.^30 The right lung was consistently dedicated for this assay to allow comparison. Briefly, harvested right lung was homogenized in PBS (PH 7.4), digested with 12N HCl at 120° C. for 3 hr. Citrate/acetate buffer (PH 6.0) and Chloramine-T solution were added at room temperature for 20 minutes and the samples were incubated with Ehrlich's solution for 15 min at 65° C. Samples were cooled to room temperature and read at 550 nm. Hydroxyproline standards (Sigma, MO) at concentrations between 0 to 100 μg/ml were used to construct a standard curve.
# PI-3 Kinase signaling = conditions: IPF-derived lung fibroblasts; cited from earlier work
# AKT phosphorylation = assay: Western blot of TGFβ-stimulated HLF-1 fibroblasts: Akt phosphorylation; type: cell-based, human
# Protocol: as §1
# (§2) Serum starved confluent HLF1 cells were co-incubated in medium containing 1 ng/ml TGFb1 with or without designate concentrations of PI3K inhibitors for 24 hours. Cells were harvested and lysed for Western blot analysis. Following sodium dodecyl sulphate polyacrylamide gel electrophoresis and blocking, membranes were incubated with antibodies to detect pSMAD2^Ser465/467 (#3101, Cell Signalling Technology), or pAkt^Ser473 (#4060, Cell signalling Technology), and signals visualized with ECL Western Blotting Detection Reagents (GE Healthcare). […]
# HLF-1 fibroblasts [3] = assay: MTT assay and Caspase 3 and 7 activity in HLF-1; type: cell-based, human
# Protocol: as §1
# FIG. 18. Caspase 3 and 7 activity show PI3KI1 inhibited HLF-1 proliferation at >100 nM.
# [4] = system: Collagen 1 and αSMA expression; assay: Western blot of TGFβ-stimulated HLF-1 fibroblasts: Collagen 1 and αSMA expression; type: cell-based, human; conditions: 100 nM, HLF-1, TGFβ 1 ng/mL
# Protocol: as §1, §2
# HLF-1 fibroblasts [5] = assay: Collagen gel contraction assay; type: cell-based, human; conditions: 100 nM for 12 hours
# Protocol: as §1
smiles,measurement,setting,value
C[C@H](NC(=O)c1ccnc(CNC(=O)CCC(=O)NC(CSC2CC(=O)N(c3ccc(C4c5ccc(O)cc5OC5=CC(=O)C=CC54)c(C(=O)O)c3)C2=O)C(=O)O)c1)C(=O)N1CC(F)(F)C[C@H]1C#N (some centres unmarked) [FAPL-FITC],cell population recognized among cells binding a monoclonal antibody against mouse FAP,mouse FAP,~98%
same,binding to hFAP-HLF1 cell line,human FAP; confocal microscopy and flow cytometry,binds well with good competition
same,internalization,human FAP; HLF1-hFAP cells,internalized upon receptor engagement
COc1ncc(-c2ccc3nccc(-c4ccc(COC(=O)OCCSSCC(NC(=O)CCC(=O)NCc5cc(C(=O)N[C@@H](C)C(=O)N6CC(F)(F)C[C@H]6C#N)ccn5)C(=O)O)nc4)c3c2)cc1NS(=O)(=O)c1ccc(F)cc1F (some centres unmarked) [FAPL-PI3KI1],IC50,"IPF fibroblasts; IPF patient cell lines, read-out: IC50 of collagen secretion/synthesis",< 10 nM
same,TGFβ-induced collagen production/secretion,IPF fibroblasts; listed as FAP_PI3KI1,"suppresses TGFβ induced collagen secretion at low drug concentration, better than free PI3KI1 and free GSK drug OMIPALISIB"
same,TGFβ-induced collagen production/secretion,IPF fibroblasts; listed as PI3KI1-FAPL,suppressed
same,IC50,"HLF-1 fibroblasts [1]; HLF1-hFAP cell line, read-out: IC50 of collagen secretion/synthesis",< 10 nM
same,survival,[2],increased survival
same,survival,[2]; listed as FAPL_PI3KI-SUH,increased survival rate
same,hydroxyproline/collagen in lung,[2],decreased hydroxyproline/collagen production
same,hydroxyproline/collagen in lung,[2]; listed as FAPL_PI3KI-SUH,reduction of hydroxyproline
COc1ncc(-c2ccc3nccc(-c4ccnnc4)c3c2)cc1NS(=O)(=O)c1ccc(F)cc1F [OMIPALISIB],PI-3 Kinase signaling and functional responses,PI-3 Kinase signaling,inhibited PI-3 Kinase signaling and functional responses
COc1ncc(-c2ccc3nccc(-c4ccc(CO)nc4)c3c2)cc1NS(=O)(=O)c1ccc(F)cc1F [PI3KI1],TGFβ-induced collagen production/secretion,IPF fibroblasts,suppressed
same,Akt phosphorylation inhibition compared with OMIPALISIB,AKT phosphorylation; HLF-1,better than its GSK counterpart OMIPALISIB
same,IC50,"AKT phosphorylation; Homo sapiens, HLF1, HLF-1, TGF-β 1 ng/ml for 24 hr, read-out: IC50 of TGF-β induced AKT phosphorylation",1.4 nM
same,collagen secretion,"HLF-1 fibroblasts [1]; HLF-1 cell line, TGFβ stimulated",suppresses collagen secretion
same,toxicity,HLF-1 fibroblasts [3]; HLF-1,does not have toxicity
same,concentration at which HLF-1 proliferation is inhibited,HLF-1 fibroblasts [3]; MTT assay and Caspase 3 and 7 activity,> 100 nM
same,Collagen 1 and αSMA expression,[4],suppressed
same,fibroblast reorganization and contraction (collagen gel contraction),HLF-1 fibroblasts [5],disrupted fibroblasts reorganization and contraction
